Test system: MDA-MB-436 cells
Experiment: Growth inhibition assay against BRCA mutant human breast cancer MDA-MB-436 cell line (CCK-8)
Format: cell-based
Settings: proliferation of MDA-MB-436 cells, 7 days

SMILES	IC50 (Homo sapiens, MDA-MB-436, […])	IC50
CNC(=O)c1ccc(N2CCN(Cc3ccc4c(c3)[nH]c(=O)c3ncsc34)CC2)c(C)n1 [Example 4, 7-((4-(2-methyl-6-(methylcarbamoyl)pyridin-3-yl)piperazin-1-yl)methyl)thiazolo[4,5-c]quinolin-4(5H)-one]	7.69 nM	
CNC(=O)c1ccc(N2CCN(Cc3ccc4c(c3)[nH]c(=O)c3cn[nH]c34)CC2)c(C)n1 [Example 7, 7-((4-(2-methyl-6-(methylcarbamoyl)pyridin-3-yl)piperazin-1-yl)methyl)-1,5-dihydro-4H-pyrazolo[4,3-c]quinolin-4-one]	5.22 nM	
CNC(=O)c1ccc(N2CCN(Cc3ccc4c(c3)[nH]c(=O)c3c4ccn3C)CC2)c(C)n1 [Example 11, 7-((4-(2-methyl-6-(methylcarbamoyl)pyridin-3-yl)piperazin-1-yl)methyl)-3-methyl-3,5-dihydro-4H-pyrrolo[2,3-c]quinolin-4-one]	11.3 nM	
CNC(=O)c1ccc(N2CCN(Cc3ccc4c(c3)[nH]c(=O)c3cc[nH]c34)CC2)c(C)n1 [Example 23, 7-((4-(2-methyl-6-(methylcarbamoyl)pyridin-3-yl)piperazin-1-yl)methyl)-1,5-dihydro-4H-pyrrolo[3,2-c]quinolin-4-one]	1.74 nM	
CNC(=O)c1ccc(N2CCN(Cc3ccc4c(c3)[nH]c(=O)c3ccn(C)c34)CC2)c(F)n1 [Example 24, 7-((4-(2-fluoro-6-(methylcarbamoyl)pyridin-3-yl)piperazin-1-yl)methyl)-1-methyl-1,5-dihydro-4H-pyrrolo[3,2-c]quinolin-4-one]	1.11 nM	
CNC(=O)c1ccc(N2CCN(Cc3ccc4c([nH]c(=O)n5ccnc45)c3F)CC2)c(C)n1 [Example 50, 8-((4-(2-methyl-6-(methylcarbamoyl)pyridin-3-yl)piperazin-1-yl)methyl)-7-fluoroimidazo[1,2-c]quinazolin-5(6H)-one]	23.6 nM	
CNC(=O)c1ccc(N2CCN(Cc3ccc4c([nH]c(=O)c5c(Cl)cnn54)c3F)CC2)c(C)n1 [Example 59, 7-((4-(2-methyl-6-(methylcarbamoyl)pyridin-3-yl)piperazin-1-yl)methyl)-6-fluoro-3-chloro-pyrazolo[1,5-a]quinoxalin-4(5H)-one]	2.13 nM	
CNC(=O)c1ccc(N2CCN(Cc3ccc4c(c3)[nH]c(=O)c3n[nH]cc34)CC2)c(C)n1 [Example 70, 7-((4-(2-methyl-6-(methylcarbamoyl)pyridin-3-yl)piperazin-1-yl)methyl)-2,5-dihydro-4H-pyrazolo[3,4-c]quinolin-4-one]	28.9 nM	
CNC(=O)c1ccc(N2CCN(Cc3ccc4c([nH]c(=O)n5nccc45)c3F)CC2)c(F)n1 [Example 73, 8-((4-(2-fluoro-6-(methylcarbamoyl)pyridin-3-yl)piperazin-1-yl)methyl)-7-fluoropyrazolo[1,5-c]quinazolin-5(6H)-one]	12.3 nM	
CNC(=O)c1ccc(N2CCN(Cc3ccc4c([nH]c(=O)c5cn(C)nc54)c3F)CC2)c(C)n1 [Example 88, 7-((4-(2-methyl-6-(methylcarbamoyl)pyridin-3-yl)piperazin-1-yl)methyl)-6-fluoro-2-methyl-2,5-dihydro-4H-pyrazolo[4,3-c]quinolin-4-one]	21.7 nM	
CNC(=O)c1ccc(N2CCN(Cc3ccc4c([nH]c(=O)c5cn(C)nc54)c3F)CC2)c(F)n1 [Example 90, 7-((4-(2-fluoro-6-(methylcarbamoyl)pyridin-3-yl)piperazin-1-yl)methyl)-6-fluoro-2-methyl-2,5-dihydro-4H-pyrazolo[4,3-c]quinolin-4-one]	28.7 nM	
CNC(=O)c1ccc(N2CCN(Cc3cc4[nH]c(=O)c5ocnc5c4cc3F)CC2)c(F)n1 [Example 94, 7-((4-(2-fluoro-6-(methylcarbamoyl)pyridin-3-yl)piperazin-1-yl)methyl)-8-fluorooxazolo[5,4-c]quinolin-4(5H)-one]	> 100 nM	
CNC(=O)c1ccc(N2CCN(Cc3ccc4c([nH]c(=O)c5ocnc54)c3F)CC2)c(F)n1 [Example 95, 7-((4-(2-fluoro-6-(methylcarbamoyl)pyridin-3-yl)piperazin-1-yl)methyl)-6-fluorooxazolo[5,4-c]quinolin-4(5H)-one]	> 100 nM	
CNC(=O)c1ccc(N2CCN(Cc3ccc4c([nH]c(=O)c5c(C)noc54)c3F)CC2)c(F)n1 [Example 96, 7-((4-(2-fluoro-6-(methylcarbamoyl)pyridin-3-yl)piperazin-1-yl)methyl)-3-methyl-6-fluoroisoxazolo[4,5-c]quinolin-4(5H)-one]	36.7 nM	
CNC(=O)c1ccc(N2CCN(Cc3cc4[nH]c(=O)c5c(C)noc5c4cc3F)CC2)c(F)n1 [Example 97, 7-((4-(2-fluoro-6-(methylcarbamoyl)pyridin-3-yl)piperazin-1-yl)methyl)-3-methyl-8-fluoroisoxazolo[4,5-c]quinolin-4(5H)-one]	9.79 nM	
CNC(=O)c1ccc(N2CCN(Cc3ccc4c([nH]c(=O)c5ncn(C)c54)c3F)CC2)c(F)n1 [Example 100, 7-((4-(2-fluoro-6-(methylcarbamoyl)pyridin-3-yl)piperazin-1-yl)methyl)-6-fluoro-1-methyl-1,5-dihydro-4H-imidazo[4,5-c]quinolin-4-one]	> 100 nM	

SMILES	IC50 (Homo sapiens, MDA-MB-436, […])	IC50
CNC(=O)c1ccc(N2CCN(Cc3ccc4c([nH]c(=O)c5occc54)c3F)CC2)c(C(F)F)n1 [Example 101, 7-((4-(2-(difluoromethyl)-6-(methylcarbamoyl)pyridin-3-yl)piperazin-1-yl)methyl)-6-fluorofuro[2,3-c]quinolin-4(5H)-one]	23 nM	
CNC(=O)c1ccc(N2CCN(Cc3ccc4c([nH]c(=O)c5occc54)c3Cl)CC2)c(F)n1 [Example 105, 7-((4-(2-fluoro-6-(methylcarbamoyl)pyridin-3-yl)piperazin-1-yl)methyl)-6-chlorofuro[2,3-c]quinolin-4(5H)-one]	> 100 nM	
NC(=O)c1ccc(N2CCN(Cc3ccc4c([nH]c(=O)c5occc54)c3F)CC2)c(F)n1 [Example 106, 7-((4-(2-fluoro-6-carbamoylpyridin-3-yl)piperazin-1-yl)methyl)-6-fluorofuro[2,3-c]quinolin-4(5H)-one]	17.5 nM	
O=c1[nH]c2c(F)c(CN3CCN(c4ccc(-c5nnc[nH]5)nc4F)CC3)ccc2c2ccoc12 [Example 110, 7-((4-(2-fluoro-6-(4H-1,2,4-triazol-3-yl)pyridin-3-yl)piperazin-1-yl)methyl)-6-fluorofuro[2,3-c]quinolin-4(5H)-one]	12.9 nM	
CNC(=O)c1ccc(N2CCN(Cc3ccc4c(c3)[nH]c(=O)c3occc34)CC2)cn1 [Example 113, 7-((4-(6-(methylcarbamoyl)pyridin-3-yl)piperazin-1-yl)methyl)furo[2,3-c]quinolin-4(5H)-one]	2.19 nM	
CNC(=O)c1ccc(N2CCN(Cc3ccc4c(c3)[nH]c(=O)c3ccoc34)CC2)c(F)n1 [Example 114, 7-((4-(2-fluoro-6-(methylcarbamoyl)pyridin-3-yl)piperazin-1-yl)methyl)furo[3,2-c]quinolin-4(5H)-one]	1.32 nM	
CNC(=O)c1ccc(N2CCN(Cc3ccc4c([nH]c(=O)c5oc(C)cc54)c3F)CC2)c(F)n1 [Example 116, 7-((4-(2-fluoro-6-(methylcarbamoyl)pyridin-3-yl)piperazin-1-yl)methyl)-6-fluoro-2-methylfuro[2,3-c]quinolin-4(5H)-one]	7.5 nM	
CNC(=O)c1ccc(N2CCN(Cc3ccc4c([nH]c(=O)n5nccc45)c3F)CC2)c(C)n1 [Example 119, 8-((4-(2-methyl-6-(methylcarbamoyl)pyridin-3-yl)piperazin-1-yl)methyl)-7-fluoropyrazolo[1,5-c]quinazolin-5(6H)-one]		7.87 nM
CNC(=O)c1ccc(C2CCN(Cc3ccc4c([nH]c(=O)c5c(C)cnn54)c3F)CC2)c(F)n1 [Example 124, 6-fluoro-7-((4-(2-fluoro-6-(methylcarbamoyl)pyridin-3-yl)piperidin-1-yl)methyl)-3-methylpyrazolo[1,5-a]quinoxalin-4(5H)-one]	25.5 nM	
CCNC(=O)c1ccc(N2CCN(Cc3ccc4c([nH]c(=O)c5c(C)cnn54)c3F)CC2)c(F)n1 [Example 125, 7-((4-(2-fluoro-6-(ethylcarbamoyl)pyridin-3-yl)piperazin-1-yl)methyl)-6-fluoro-3-methylpyrazolo[1,5-a]quinoxalin-4(5H)-one]	7.24 nM	
CNC(=O)c1ncc(N2CCN(Cc3ccc4c([nH]c(=O)c5c(C)cnn54)c3F)CC2)cc1F [Example 127, 7-((4-(5-fluoro-6-(methylcarbamoyl)pyridin-3-yl)piperazin-1-yl)methyl)-6-fluoro-3-methylpyrazolo[1,5-a]quinoxalin-4(5H)-one]	55.3 nM	
CNC(=O)c1ccc(N[C@@H]2CCN(Cc3ccc4c([nH]c(=O)c5c(C)cnn54)c3F)C2)cn1 [Example 134, (R)-6-fluoro-3-methyl-7-((3-((6-(methylcarbamoyl)pyridin-3-yl)amino)pyrrolidin-1-yl)methyl)pyrazolo[1,5-a]quinoxalin-4(5H)-one]	> 100 nM	
CNC(=O)c1ccc(N[C@@H]2CCN(Cc3ccc4c([nH]c(=O)c5c(C)cnn54)c3F)C2)c(F)n1 [Example 135, (R)-6-fluoro-7-((3-((2-fluoro-6-(methylcarbamoyl)pyridin-3-yl)amino)pyrrolidin-1-yl)methyl)-3-methylpyrazolo[1,5-a]quinoxalin-4(5H)-one]	> 100 nM	
CNC(=O)c1ccc(N2CCN(Cc3ccc4c(c3)[nH]c(=O)c3nocc34)CC2)c(F)n1 [Example 144, 7-((4-(2-fluoro-6-(methylcarbamoyl)pyridin-3-yl)piperazin-1-yl)methyl)isoxazolo[3,4-c]quinolin-4(5H)-one]	1.9 nM	
CNC(=O)c1ccc(N2CCN(Cc3ccc4c([nH]c(=O)c5cncn54)c3F)CC2)cn1 [Example 145, 7-((4-(6-(methylcarbamoyl)pyridin-3-yl)piperazin-1-yl)methyl)-6-fluoroimidazo[1,5-a]quinoxalin-4(5H)-one]	> 100 nM	
CNC(=O)c1ccc(N[C@@H]2CCN(Cc3ccc4c([nH]c(=O)c5occc54)c3F)C2)cn1 [Example 146, (R)-7-((3-((6-(methylcarbamoyl)pyridin-3-yl)amino)pyrrolidin-1-yl)methyl)-6-fluorofuro[2,3-c]quinolin-4(5H)-one]	> 100 nM	

From patent US20250215013A1, “SUBSTITUTED TRICYCLIC COMPOUNDS AS PARP INHIBITORS AND THE USE THEREOF” (IMPACT THERAPEUTICS (SHANGHAI), INC., priority 2022, published 2025)
